Source: patent US20220204560A1, “NOVEL OLIGOPEPTIDE, AND PHARMACEUTICAL COMPOSITION FOR PREVENTING OR TREATING CANCER, COMPRISING THE SAME AS AN ACTIVE INGREDIENT” (L-BASE CO., LTD., priority 2019, published 2022)

How the values were obtained:
[1] = system: breast cancer cell line HCC70; assay: CellTiter-Glo Luminescent (CTG) assay, cell activity suppression, breast cancer cell line HCC70; type: cell-based; settings: HCC70, 100 μM or 500 μM, 72 hours, compared to control group (FIG. 5)
[2] = system: breast cancer cell line MDA-MB-231; assay: Clonogenic assay, colony formation suppression, breast cancer cell line MDA-MB-231; type: cell-based; settings: MDA-MB-231, 100 μM or 500 μM, 14 days, compared to control group (FIG. 4)

Sequence | suppression of the activity of cancer cells (amount of ATP, CTG assay) [1] | suppression of colony formation (clonogenic assay) [2]
AQTITGKT (Oligopeptide #1 AQTITGKT) [oligopeptide of General Formula A-Q-T-X-T-G-K-T, X is isoleucine] | significant effects on suppression of the colony formation and the activity of cancer cells | significant effects on suppression of the colony formation
AQTLTGKT | significant effects on suppression of the colony formation and the activity of cancer cells | significant effects on suppression of the colony formation
